Read-outs that look alike come from different tables or passages of the source. [ ]: non-standard residue; d: D form. mDAP = meso-diaminopimelic acid
How the values were obtained:
[1] = tested on: Csd6; assay: Crystal structure of D-Ala-bound Csd6; type: binding, Helicobacter pylori 26695; settings: native crystal preincubated 2 min with 96 mM D-Ala; 2.04 Å, PDB 4Y4V
Protocol: Native crystals of ligand-free Csd6 were grown at 23 °C by the sitting-drop vapor diffusion method. Sitting drops were prepared by mixing 0.5 μl of the protein solution, 0.1 μl of a 10-fold diluted microseed crystal solution, and 0.4 μl of the reservoir solution (1.5% (v/v) Tacsimate, pH 7.0, 22% (w/v) PEG 3,350, and 100 mM sodium-HEPES, pH 7.5). The microseed crystals were originally obtained with ligand-free Csd6 using the above reservoir solution. The crystals grew to approximate dimensions of 0.2 × 0.1 × 0.05 mm within a few days. X-ray diffraction data for the ligand-free Csd6 (Csd6-unbound) were collected at 100 K using a cryoprotectant solution containing 20% (v/v) glycerol added to the reservoir solution (Table 1). X-ray diffraction data for the D-Ala-bound Csd6 (Csd6-Ala) were collected at 100 K after the native crystal was preincubated for 2 min in a cryoprotectant solution containing both 20% (v/v) glycerol and 96 mM D-Ala, which were added to the reservoir solution (Table 1). The structures of both Csd6-unbound and Csd6-Ala were determined by molecular replacement with the program MolRep ([47]) using the refined model of EMTS-derivatized Csd6. Stereochemistry of the refined models was evaluated using MolProbity ([48]).

[2] = target: H. pylori Csd6 (Helicobacter pylori, UniProt O25255); assay: SPR kinetics and affinity on immobilized Csd6; type: binding, Helicobacter pylori 26695; settings: for kon: read-out: association rate constant ka; for koff: read-out: dissociation rate constant kd
Protocol: The kinetics and affinity of Csd6 with the synthetic muramyl tetrapeptide and muramyl tripeptide (β-methyl N-acetylmuramic acid-L-Ala^1-γ-D-Glu^2-mDAP^3) as a reaction product were assessed using a Reichert SR7500 surface plasmon resonance (SPR) dual channel instrument (Reichert, Depew, NY). Purified Csd6 in 20 mM sodium acetate, pH 5.5, was immobilized using the standard amino coupling at 20 μl min^−1 on a carboxymethyl dextran hydrogel surface sensor chip (Reichert, Depew, NY) until saturation was achieved. The running buffer B used in all SPR experiments was 20 mM HEPES, pH 7.9, and 150 mM sodium chloride. SPR experiments were performed at 25 °C. The muramyl tetrapeptide or muramyl tripeptide at concentrations of 15.6, 31.3, 62.5, 125, 250, and 500 μM was injected over the Csd6-chip at 30 μl min^−1 for 5 min for association analyses. Subsequently, the running buffer was flowed over the chip for an additional 6 min (30 μl min^−1) for dissociation analyses. Regeneration of the chip was carried out using 20 mM sodium hydroxide. Binding was detected as a change in the refractive index at the surface of the chip as measured by the response unit. A reference flow cell was used to record the response by bovine serum albumin (BSA) as a […], and the response by BSA was subtracted from each sample. SPR data were fit using the Scrubber2 software.
FIGURE 5.

[3] = tested on: Csd6; type: biochemical, Helicobacter pylori 26695; settings: analyte 5 mM, Csd6 5 μM, 2 h, 37 °C; 20 mM sodium phosphate, pH 6.0, 150 mM sodium chloride; MALDI-QIT-TOF MS
[4] = tested on: LdtMt2; settings: positive control for L,D-TPase activity; recombinant LdtMt2 (Ala-55–Ala-408); MALDI-QIT-TOF MS
[5] = target: the molecule itself; assay: AUC; equilibrium sedimentation; 20 mM Tris-HCl pH 7.9, 150 mM NaCl, 1.5 mM TCEP, 20 °C; 16,000 and 20,000 rpm; Csd6 monomer concentrations 2.74, 3.65 and 4.56 μM
[6] = type: biochemical; settings: muramyl tetrapeptide
[7] = recombinant hexahistidine-tagged Csd6; cited from earlier work
Excerpt: In many bacteria, including H. pylori, the peptidoglycan layer is remodeled by a number of cell-wall hydrolases as well as synthetases for the peptidoglycan maturation, regulation of cell-wall growth, cell division, peptidoglycan turnover and recycling, cell lysis, and the release of peptidoglycan fragments for host-pathogen interactions ([18]). In H. pylori, an amidase AmiA ([19]), peptidases Csd1–4, potential regulators Csd5 and CcmA ([20][–][22]), and another peptidase Csd6 ([23]) are required to tailor the peptidoglycan layer to generate the helical cell shape. We have recently reported th ...

[8] = SPR, Reichert SR7500, Csd6 immobilized by amine coupling, 20 mM HEPES, pH 7.9, 150 mM sodium chloride, 25 °C, analyte 15.6-500 μM, Scrubber2 fit, read-out: KD
[9] = muramyl tripeptide vs muramyl tetrapeptide, SPR, Csd6

C[C@@H](N)C(=O)O [D-Ala]
binding in crystal structure (in words) [1]: two D-Ala molecules are well ensconced within the active site of monomer A with clear electron density
Kd [2]: 224 µM
kon [2]: 1.05 M⁻¹ s⁻¹
koff [2]: 0.00023 s⁻¹

N[C@H](CCC[C@H](N)C(=O)O)C(=O)O [mDAP, meso-2,6-diaminopimelate]
Kd [2]: 94 µM
kon [2]: 1.49 M⁻¹ s⁻¹
koff [2]: 0.00014 s⁻¹

β-methyl N-acetylmuramic acid-L-Ala^1-γ-D-Glu^2-mDAP^3 [muramyl tripeptide]
Kd [2, 8]: 510 µM
ka relative to that for the muramyl tetrapeptide [2, 9]: roughly 3 ×
kd relative to that for the muramyl tetrapeptide [2, 9]: ~50 ×

β-methyl N-acetylmuramic acid-L-Ala^1-γ-D-Glu^2-mDAP^3-D-Ala^4 ({β‑methyl N‑acetylmuramic acid}-AE[mDAP][dA]-OH; not fully specified (residue 2)) [muramyl tetrapeptide]
Kd [2, 8]: 27 µM

β-methyl N-acetylmuramic acid-L-Ala^1-γ-D-Glu^2-mDAP^3-D-Ala^4 [muramyl tetrapeptide]
reaction product upon incubation with Csd6 [3]: the muramyl tripeptide was detected as the sole reaction product of trimming without any dimeric cross-linked species
reaction product upon incubation with LdtMt2 [4]: not only the muramyl tripeptide (Tri in Fig. 1C) but also the dimeric cross-linked species (Tetra-Tri in Fig. 1C) were detected as the reaction products

β-methyl N-acetylmuramic acid-L-Ala^1-γ-D-Glu^2-mDAP^3-D-Ala^4-D-Ala^5 [muramyl pentapeptide]
reaction product upon incubation with Csd6 [3]: no reaction product could be detected

B1: Helicobacter pylori Csd6 (HP0518), residues Val-13–Lys-330 (enzyme, Helicobacter pylori 26695, UniProt O25255 13-330, looked up)
chain: VGLNASDRLLEIMRLYQKQGLEMVGQKLDSYLADKSFWAEELQNKDTDFGYYQNKQFLFVANKSKPSLEFYEIENNMLKKINSSKALVGSKKGDKTLEGDLATPIGVYRITQKLERLDQYYGVLAFVTNYPNLYDTLKKRTGHGIWVHGMPLNGDRNELNTKGCIAIENPLLSSYDKVLKGEKAFLITYEDKFFPSTKEELSMILSSLFQWKEAWARGDFERYMRFYNPNFTRYDGMKFNAFKEYKKRVFAKNEKKNIAFSSINVIPYPNSQNKRLFYVVFDQDYKAYQHNKLSYSSNSQKELYIEIENNQVSIIMEK
notes: Csd6 (HP0518), L,D-carboxypeptidase of Helicobacter pylori strain 26695, residues Val-13–Lys-330 of the gene product; In the Csd6-Ala crystal, Cys-176 of monomer A is oxidised to sulfenic acid; also called Csd6(13–330); recombinant Csd6; source: E. coli Rosetta2(DE3)pLysS, purified (HiTrap Chelating HP, Superdex 200)
stoichiometry N [5]: 2

B2: Csd6: recombinant H. pylori 26695 Csd6 protein, residues Val-13–Lys-330, with N-terminal His6-containing tag (protein)
chain: B1 chain
modifications: left off: His6-containing tag, N-terminal, state not stated
notes: recombinant H. pylori 26695 Csd6 protein, residues Val-13–Lys-330, with N-terminal His6-containing tag
L,D-carboxypeptidation activity upon EDTA treatment (in words) [6]: no change upon EDTA treatment
conversion of monomeric tetrapeptides [7]: complete conversion of the monomeric tetrapeptides to tripeptides

Reference: article PMC4599014, “The Cell Shape-determining Csd6 Protein from Helicobacter pylori Constitutes a New Family of L,D-Carboxypeptidase*” (The Journal of Biological Chemistry, 2015)
